# Data reported in ChEMBL document CHEMBL5352417, “Design, synthesis, and biological evaluation of aromatic tertiary amine derivatives as selective butyrylcholinesterase inhibitors for the treatment of Alzheimer's disease” (Eur J Med Chem, 2022).
# Activity calls are given as the source filed them. The rule behind the calls is not given here.
# What was measured:
# Cholinesterase [1] = target: Cholinesterase (Equus caballus, UniProt P81908); experiment: Inhibition of horse serum BuChE using butyrylthiocholine iodide as substrate measured for 3 mins by Ellman's method; format: cell-free
# Sequence of Cholinesterase (Equus caballus, UniProt P81908) (P81908 whole entry): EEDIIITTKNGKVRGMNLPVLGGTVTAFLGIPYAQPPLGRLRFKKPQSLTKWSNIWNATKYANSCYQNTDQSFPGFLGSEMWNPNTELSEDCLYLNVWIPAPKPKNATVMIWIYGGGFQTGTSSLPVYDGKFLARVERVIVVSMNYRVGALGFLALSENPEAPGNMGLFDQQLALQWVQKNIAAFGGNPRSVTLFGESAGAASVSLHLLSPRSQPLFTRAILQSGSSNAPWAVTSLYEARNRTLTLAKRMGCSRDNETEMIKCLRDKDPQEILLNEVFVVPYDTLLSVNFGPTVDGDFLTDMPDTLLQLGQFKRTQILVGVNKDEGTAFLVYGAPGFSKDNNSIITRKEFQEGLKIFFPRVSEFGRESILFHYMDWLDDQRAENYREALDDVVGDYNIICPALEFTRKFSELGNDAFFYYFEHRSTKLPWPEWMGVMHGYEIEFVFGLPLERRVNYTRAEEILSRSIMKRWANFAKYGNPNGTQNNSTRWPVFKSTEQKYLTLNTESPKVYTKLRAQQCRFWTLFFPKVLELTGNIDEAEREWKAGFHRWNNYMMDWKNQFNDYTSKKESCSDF
# [2] = target: Cholinesterase (Equus caballus) (UniProt P81908); experiment: Inhibition of horse serum BuChE using butyrylthiocholine iodide as substrate at <10 uM measured for 3 mins by Ellman's method relative to control; format: cell-free
# Sequence of Cholinesterase (Equus caballus) (P81908 whole entry): as above
# [3] = target: Acetylcholinesterase (Electrophorus electricus) (UniProt O42275); experiment: Inhibition of electric eel AchE using acetylthiocholine iodide as substrate at <10 uM measured for 3 mins by Ellman's method relative to control
# Sequence of Acetylcholinesterase (Electrophorus electricus) (O42275 24-633 limits assumed): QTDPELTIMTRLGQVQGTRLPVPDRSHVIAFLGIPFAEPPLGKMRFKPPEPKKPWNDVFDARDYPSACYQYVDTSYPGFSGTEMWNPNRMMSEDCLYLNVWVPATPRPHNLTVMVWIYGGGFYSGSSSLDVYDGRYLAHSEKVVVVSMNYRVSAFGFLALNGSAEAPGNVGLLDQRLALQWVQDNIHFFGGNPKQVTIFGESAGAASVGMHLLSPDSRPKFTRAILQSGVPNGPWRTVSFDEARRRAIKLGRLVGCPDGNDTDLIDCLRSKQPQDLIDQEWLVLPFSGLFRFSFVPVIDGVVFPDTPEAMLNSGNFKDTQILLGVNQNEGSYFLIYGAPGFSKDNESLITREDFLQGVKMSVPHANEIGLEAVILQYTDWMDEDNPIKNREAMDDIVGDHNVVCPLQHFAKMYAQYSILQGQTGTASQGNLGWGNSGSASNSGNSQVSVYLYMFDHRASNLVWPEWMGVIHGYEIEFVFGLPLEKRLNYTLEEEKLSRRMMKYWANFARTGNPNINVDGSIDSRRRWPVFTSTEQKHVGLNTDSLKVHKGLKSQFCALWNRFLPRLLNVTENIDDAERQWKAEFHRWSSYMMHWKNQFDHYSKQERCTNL
# [4] = Neurotoxicity against mouse BV-2 cells incubated for 24 hrs by MTT assay; format: toxicity, cell-based; settings: read-out: LD50
# Cholinesterase [5] = target: Cholinesterase (Homo sapiens, UniProt P06276); experiment: Inhibition of human BChE using butyrylthiocholine iodide as substrate measured for 3 mins by Ellman's method
# Sequence of Cholinesterase (Homo sapiens, UniProt P06276) (P06276 whole entry): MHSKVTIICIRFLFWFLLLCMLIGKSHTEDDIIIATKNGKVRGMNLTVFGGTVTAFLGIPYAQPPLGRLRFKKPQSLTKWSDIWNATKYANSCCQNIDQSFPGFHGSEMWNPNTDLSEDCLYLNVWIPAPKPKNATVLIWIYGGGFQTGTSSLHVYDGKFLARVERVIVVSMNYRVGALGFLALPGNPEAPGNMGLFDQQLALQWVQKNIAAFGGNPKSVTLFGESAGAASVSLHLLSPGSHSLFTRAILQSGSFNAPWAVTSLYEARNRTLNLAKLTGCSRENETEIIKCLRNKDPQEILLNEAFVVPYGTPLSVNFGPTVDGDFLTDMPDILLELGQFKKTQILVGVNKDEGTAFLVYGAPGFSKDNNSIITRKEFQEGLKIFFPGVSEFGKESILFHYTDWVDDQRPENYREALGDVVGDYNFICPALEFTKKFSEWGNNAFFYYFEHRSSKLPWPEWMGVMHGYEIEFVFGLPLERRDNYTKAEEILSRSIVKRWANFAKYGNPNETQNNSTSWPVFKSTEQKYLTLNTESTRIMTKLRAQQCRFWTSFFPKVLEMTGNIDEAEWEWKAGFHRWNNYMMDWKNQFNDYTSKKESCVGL
# [6] = Effective permeability of compound at 25 ug/ml incubated for 18 hrs by PAMPA-BBB assay; format: ADME; settings: dose 25 µg/ml, read-out: Peff
# [7] = Neurotoxicity against rat PC12 cells assessed as survival rate incubated for 24 hrs by MTT assay relative to control; format: toxicity, cell-based, PC-12; parameters: concentration or dose not given beside the values; settings: read-out: Survival
# [8] = Neurotoxicity against human SH-SY5Y cells assessed as survival rate incubated for 24 hrs by MTT assay relative to control; format: toxicity, cell-based; parameters: concentration or dose not given beside the values; settings: read-out: Survival
# [9] = Neurotoxicity against mouse HT-22 cells assessed as survival rate incubated for 24 hrs by MTT assay relative to control; format: toxicity, cell-based; parameters: concentration or dose not given beside the values; settings: read-out: Survival
# [10] = Neurotoxicity against rat PC12 cells incubated for 24 hrs by MTT assay; format: toxicity, cell-based, PC-12; settings: read-out: LD50
# [11] = Neurotoxicity against mouse HT-22 cells incubated for 24 hrs by MTT assay; format: toxicity, cell-based; settings: read-out: LD50
# [12] = Neurotoxicity against human SH-SY5Y cells incubated for 24 hrs by MTT assay; format: toxicity, cell-based; settings: read-out: LD50
# SH-SY5Y = experiment: Neuroprotective activity against amyloid beta (1 to 42)-induced injury in human SH-SY5Y cells assessed as cell viability at 0.5 to 50 uM by MTT assay; format: functional, cell-based; settings: dose 0.5-50 µM
# Mus musculus [13] = experiment: Antialzheimer activity against amyloid beta (1 to 42)-induced mouse model of cognitive dysfunction assessed as latency time at 15 mg/kg, po measured for 14 days by Morris Water maze method; format: functional, ICR; settings: time 14 day
# Mus musculus [14] = experiment: Antialzheimer activity against amyloid beta (1 to 42)-induced mouse model of cognitive dysfunction assessed as reaching target platform at 15 mg/kg, po measured for 14 days by Morris Water maze method; format: functional, organism-based; settings: ICR, time 14.0 day
# Mus musculus [15] = experiment: Antialzheimer activity against amyloid beta (1 to 42)-induced mouse model of cognitive dysfunction assessed as reduction in latency time at 15 mg/kg, po measured for 14 days by Morris Water maze method; format: functional, organism-based; settings: ICR, time 14.0 day
# Cholinesterase [16] = target: Cholinesterase (Mus musculus, UniProt Q03311)
# Sequence of Cholinesterase (Mus musculus, UniProt Q03311) (Q03311 whole entry): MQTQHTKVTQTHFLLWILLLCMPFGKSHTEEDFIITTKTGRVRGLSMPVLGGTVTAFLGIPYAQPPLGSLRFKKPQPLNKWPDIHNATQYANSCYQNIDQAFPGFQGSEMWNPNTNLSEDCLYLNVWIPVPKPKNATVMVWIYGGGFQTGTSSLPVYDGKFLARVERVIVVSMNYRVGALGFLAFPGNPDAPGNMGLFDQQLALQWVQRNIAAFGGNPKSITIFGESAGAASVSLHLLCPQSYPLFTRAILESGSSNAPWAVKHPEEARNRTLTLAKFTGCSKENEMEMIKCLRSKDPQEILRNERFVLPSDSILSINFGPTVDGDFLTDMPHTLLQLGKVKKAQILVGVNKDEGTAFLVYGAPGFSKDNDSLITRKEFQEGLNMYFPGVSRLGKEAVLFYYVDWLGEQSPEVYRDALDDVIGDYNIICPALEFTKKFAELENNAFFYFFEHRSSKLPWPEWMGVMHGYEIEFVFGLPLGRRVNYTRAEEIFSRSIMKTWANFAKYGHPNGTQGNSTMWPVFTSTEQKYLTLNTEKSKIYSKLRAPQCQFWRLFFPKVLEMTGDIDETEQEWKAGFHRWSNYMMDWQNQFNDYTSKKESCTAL
# Description: Inhibition of mouse BChE by Ellman's method
SMILES,IC50 (Cholinesterase [1]) [µM],inhibition [2] [%],inhibition [3] [%],further results
COc1ccc(NC(=O)CN(Cc2ccccc2)Cc2ccco2)cc1,121,21.6,18.2,–
O=C(CN(Cc1ccccc1)Cc1ccco1)Nc1ccccc1F,8.86,50.9,14.1,–
O=C(CN(Cc1ccccc1)Cc1ccco1)Nc1ccc2ccccc2c1,9.77,50.4,13.9,–
CC(C)CN(CCCc1ccccc1)Cc1ccc2ccccc2c1,4.04,54.7,19.4,"CC50 at 24 h [4]: 48.7 µM; IC50 (Cholinesterase [5]): 0.024 µM; Papp at 18 h, 25 ug/ml [6]: 9.87 ×10⁻⁶ cm/s; viability at 24 h [7]: 86.3%; viability at 24 h [8]: 155%; viability at 24 h [9]: 83.5%"
O=C(CN(Cc1ccccc1)Cc1ccco1)Nc1ccccc1Cl,9.96,50.5,17.5,–
O=C(CN(Cc1ccccc1)Cc1ccco1)Nc1cccc(F)c1F,13.3,50.1,18,–
c1ccc(CCCN(Cc2ccc3ccccc3c2)Cc2ccco2)cc1,15.7,42.5,13.4,–
Cc1cccc(NC(=O)CN(Cc2ccccc2)Cc2ccco2)c1,7.33,57.8,13.3,–
CCCN(CC(=O)Nc1ccccc1C)Cc1ccc2ccccc2c1,0.19,91.3,22.9,"CC50 at 24 h [4]: 17.6 µM; IC50 (Cholinesterase [5]): 0.027 µM; Papp at 18 h, 25 ug/ml [6]: 11.9 ×10⁻⁶ cm/s; CC50 at 24 h [10]: 45.9 µM; viability at 24 h [8]: 52.8%; viability at 24 h [9]: 51.6%"
O=C(CN(Cc1ccccc1)Cc1ccco1)Nc1cccc(F)c1,31.7,47,17.3,–
Cc1cccc(NC(=O)CN(Cc2ccccc2)Cc2ccco2)c1C,2.67,61.9,19.7,"CC50 at 24 h [4]: 16.6 µM; Papp at 18 h, 25 ug/ml [6]: 9.47 ×10⁻⁶ cm/s; CC50 at 24 h [11]: 46.8 µM; CC50 at 24 h [10]: 32.1 µM; CC50 at 24 h [12]: 35 µM"
O=C(CN(Cc1ccccc1)Cc1ccco1)Nc1cccc2ccccc12,3.53,63,13.6,–
CCN(CC)CCN(CC(=O)Nc1ccccc1C)Cc1ccc2ccccc2c1,1.45,85.6,20.1,"CC50 at 24 h [4]: 24.2 µM; IC50 (Cholinesterase [5]): 0.29 µM; Papp at 18 h, 25 ug/ml [6]: 10.6 ×10⁻⁶ cm/s; CC50 at 24 h [11]: 85.1 µM; CC50 at 24 h [10]: 40.6 µM; Activity (SH-SY5Y): inactive; CC50 at 24 h [12]: 50.8 µM"
N#Cc1ccccc1NC(=O)CN(Cc1ccccc1)Cc1ccco1,118,36.6,10.3,–
CCCCN(CC(=O)Nc1ccccc1C)Cc1ccc2ccccc2c1,1.48,77.9,21.9,"CC50 at 24 h [4]: 19 µM; IC50 (Cholinesterase [5]): 0.18 µM; Papp at 18 h, 25 ug/ml [6]: 13.9 ×10⁻⁶ cm/s; viability at 24 h [7]: 49.1%; viability at 24 h [9]: 83.1%; CC50 at 24 h [12]: 70.2 µM"
O=C(CN(Cc1ccccc1)Cc1ccco1)Nc1ccc(F)cc1,28.3,47.1,14.5,–
COc1cc(NC(=O)CN(Cc2ccccc2)Cc2ccco2)cc(OC)c1OC,52.3,18.9,16.1,–
O=C(CN(Cc1ccc2ccccc2c1)Cc1ccco1)Nc1ccccc1,2.26,62.9,16.9,"CC50 at 24 h [4]: 14 µM; Papp at 18 h, 25 ug/ml [6]: 7.81 ×10⁻⁶ cm/s; viability at 24 h [7]: 100%; viability at 24 h [8]: 90.7%; viability at 24 h [9]: 86.5%"
O=C(CN(Cc1ccccc1)Cc1ccco1)Nc1cccc(Cl)c1,47.4,42.8,19.6,–
CCCCN(CCCc1ccccc1)Cc1ccc2ccccc2c1,0.23,89,23,"CC50 at 24 h [4]: 34.4 µM; IC50 (Cholinesterase [5]): 0.011 µM; Papp at 18 h, 25 ug/ml [6]: 10.1 ×10⁻⁶ cm/s; viability at 24 h [7]: 51.9%; viability at 24 h [8]: 85.5%; Time (Mus musculus [13]): 14.4 s; Activity (SH-SY5Y): inactive; viability at 24 h [9]: 51.2%; Activity (Mus musculus [14]): Active"
Cc1ccccc1NC(=O)CN(Cc1ccc2ccccc2c1)Cc1ccco1,1.22,70.6,15.9,"CC50 at 24 h [4]: 10.9 µM; Papp at 18 h, 25 ug/ml [6]: 5.67 ×10⁻⁶ cm/s; viability at 24 h [7]: 67.3%; viability at 24 h [8]: 69.4%; viability at 24 h [9]: 67.1%"
Cc1ccccc1NC(=O)CN(Cc1ccc2ccccc2c1)CC(C)(C)C,4.1,64.6,19.6,–
COc1cccc(NC(=O)CN(Cc2ccccc2)Cc2ccco2)c1,24.8,50.1,9.2,–
CCCN(CCCc1ccccc1)Cc1ccc2ccccc2c1,1.45,80.3,21.4,"CC50 at 24 h [4]: 29 µM; IC50 (Cholinesterase [5]): 0.03 µM; Papp at 18 h, 25 ug/ml [6]: 10.3 ×10⁻⁶ cm/s; CC50 at 24 h [11]: 54.6 µM; CC50 at 24 h [10]: 77.8 µM; viability at 24 h [8]: 62.6%"

SMILES,IC50 (Cholinesterase [1]) [µM],inhibition [2] [%],inhibition [3] [%],further results
Cc1cccc(NC(=O)CN(Cc2ccco2)Cc2c[nH]c3ccccc23)c1C,10.9,52.3,18.2,–
O=C(CN(Cc1ccccc1)Cc1ccco1)Nc1ccccc1,15.4,39.6,12.6,–
O=C(CN(Cc1ccccc1)Cc1ccco1)Nc1cccc(Br)c1,6.23,54.7,13.4,–
O=C(CN(Cc1ccco1)Cc1cccc2ccccc12)Nc1ccccc1,21.7,47.1,19.6,–
Cc1ccc(NC(=O)CN(Cc2ccccc2)Cc2ccco2)cc1,149,37.5,12.8,–
Cc1ccccc1NC(=O)CN(Cc1ccc2ccccc2c1)C1CCCCC1,4.26,57.5,25.3,–
Cc1cccc(NC(=O)CN(Cc2ccco2)Cc2c[nH]c3ccccc23)c1,6.61,55.2,14.3,–
O=C(CN(Cc1ccco1)Cc1ccco1)Nc1ccccc1,7.81,47.3,12.6,–
O=C(CN(Cc1ccccc1)Cc1ccco1)Nc1ccc(C(F)(F)F)cc1,6.8,50.9,13.4,–
N#Cc1ccc(NC(=O)CN(Cc2ccccc2)Cc2ccco2)cc1,710,28.6,9.68,–
O=C(CN(Cc1ccccc1)Cc1ccco1)Nc1ccc2c(c1)OCO2,8.26,57.3,15.2,–
Cc1ccccc1NC(=O)CN(Cc1ccco1)Cc1c[nH]c2ccccc12,4.39,64.7,14.2,–
COc1cc2c(cc1OC)C(=O)C(CC1CCN(Cc3ccccc3)CC1)C2 (centres undefined),–,–,–,Activity (Mus musculus [15]): Active
Cc1ccccc1NC(=O)CN(Cc1ccccc1)Cc1ccco1,5.46,54.7,14.2,–
COCCN(CC1CCCN(Cc2ccccc2)C1)S(=O)(=O)c1ccc2ccccc2c1 (centres undefined),–,–,–,IC50 (Cholinesterase [16]): > 10 µM
O=C(CN(Cc1ccco1)Cc1ccccc1[N+](=O)[O-])Nc1ccccc1,1.3,61.9,15.8,"Papp at 18 h, 25 ug/ml [6]: 4.93 ×10⁻⁶ cm/s"
Cc1cccc(NC(=O)CN(Cc2ccc3ccccc3c2)Cc2ccco2)c1C,11,48.1,15.3,–
COc1ccccc1NC(=O)CN(Cc1ccccc1)Cc1ccco1,26.4,44.2,14.7,–
CN(C)CCCN1c2ccccc2Sc2ccc(Cl)cc21 [CHLORPROMAZINE],–,–,–,"Papp at 18 h, 25 ug/ml [6]: 6.69 ×10⁻⁶ cm/s"
C[C@]12CC[C@@H]3c4ccc(O)cc4CC[C@H]3[C@@H]1CC[C@@H]2O [ESTRADIOL],–,–,–,"Papp at 18 h, 25 ug/ml [6]: 14.6 ×10⁻⁶ cm/s"
Cc1cccc(NC(=O)CN(Cc2ccc3ccccc3c2)Cc2ccco2)c1,1.74,70.5,15.1,"CC50 at 24 h [4]: 24.9 µM; Papp at 18 h, 25 ug/ml [6]: 9.07 ×10⁻⁶ cm/s; viability at 24 h [7]: 105%; viability at 24 h [8]: 91.7%; viability at 24 h [9]: 91.4%"
O=C(CN(Cc1ccco1)Cc1c[nH]c2ccccc12)Nc1ccccc1,2.14,65.3,26.2,"CC50 at 24 h [4]: 27.5 µM; Papp at 18 h, 25 ug/ml [6]: 7.3 ×10⁻⁶ cm/s; CC50 at 24 h [11]: 59.6 µM; CC50 at 24 h [10]: 40.4 µM; CC50 at 24 h [12]: 42.2 µM"
O=C(CN(Cc1ccccc1)Cc1ccco1)Nc1cnc2ccccc2c1,27.9,29.6,13.2,–
